# Experimental data reported in PubChem BioAssay (NCI).
# “And” between values parts separate entries of the source, which are not always exact repeats. Identical values can stand only once.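 Step 1: Grow cells in 96-well plates. Step 2: Expose to compound for 48 hours at 5 concentrations. Step 3: Interpolate endpoints linearly; if unreached, use highest concentration. GI50 is the concentration that inhibits growth by half. TGI: concentration producing complete growth inhibition.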
# Columns and labels:
# Assay in all cases: growth of human tumour cells (NCI), 48 h
# PC-3 prostate = tested on: PC-3 prostate
# HCC-2998 colon = tested on: HCC-2998 colon
# SF-539 CNS = tested on: SF-539 CNS
# NCI-H226 lung = tested on: NCI-H226 lung
# TK-10 renal = tested on: TK-10 renal
# UO-31 renal = tested on: UO-31 renal
# HT29 colon = tested on: HT29 colon
# SNB-75 CNS = tested on: SNB-75 CNS
# RPMI-8226 leukemia = tested on: RPMI-8226 leukemia
# LOX IMVI melanoma = tested on: LOX IMVI melanoma
SMILES,GI50 (PC-3 prostate),TGI (PC-3 prostate),GI50 (HCC-2998 colon),TGI (HCC-2998 colon),GI50 (SF-539 CNS),TGI (SF-539 CNS),GI50 (NCI-H226 lung),TGI (NCI-H226 lung),GI50 (TK-10 renal),TGI (TK-10 renal),GI50 (UO-31 renal),TGI (UO-31 renal),GI50 (HT29 colon),TGI (HT29 colon),GI50 (SNB-75 CNS),TGI (SNB-75 CNS),GI50 (RPMI-8226 leukemia),TGI (RPMI-8226 leukemia),GI50 (LOX IMVI melanoma),TGI (LOX IMVI melanoma)
Cc1cc(O)cc(C)c1/C=C/c1cncc(C(N)=O)c1,5.09 µM,> 25 µM,21.9 µM,> 25 µM,1.87 µM,16.5 µM,> 15.6 µM,> 25 µM,5.99 µM,> 25 µM,5.58 µM,> 25 µM,6.9 µM,> 23.4 µM,2.81 µM,> 18.2 µM,7.91 µM,> 25 µM,1.94 µM,> 25 µM
C=C1C(=O)O[C@H]2C[C@@H]1CC/C(C)=C/CC/C(C)=C/CC[C@@]2(C)O,29.9 µM,95 µM,24.1 µM,74.9 µM,24.9 µM,59.3 µM,24.4 µM,58.1 µM,21.5 µM,67.7 µM,30.9 µM,87.4 µM,34.6 µM,> 100 µM,70.8 µM,> 100 µM,20.4 µM,43.5 µM,17.4 µM,31.5 µM
Cc1nc(-c2nc(-c3ccc(OC(F)(F)F)cc3)no2)nn1Cc1cccc(N2CCC(S(C)(=O)=O)CC2)c1,3.59 µM,55.2 µM,> 40.6 µM,> 100 µM,> 40.4 µM,> 100 µM,0.931 µM,41.4 µM,4.41 µM,> 100 µM,1.46 µM,> 100 µM,> 25 µM,> 100 µM,5.13 µM,48.5 µM,–,> 100 µM,0.012 µM,> 100 µM
CN1CCC2(CC1)NC(=O)c1c(c3ccc(Cl)c(Cl)c3n1C)C2C#N (configuration not stated),5.7 µM,21.1 µM,1.89 µM,3.95 µM,5.51 µM,17.9 µM,6.52 µM,30.7 µM,10.5 µM,23.4 µM,4.21 µM,17.4 µM,3.95 µM,23.6 µM,4.46 µM,18.8 µM,2.94 µM,13.3 µM,4.71 µM,18.1 µM
C[C@@H](NC(=O)/C(C#N)=C/c1ccc([N+](=O)[O-])cc1)c1ccccc1,2.34 µM,6.65 µM,1.87 µM,3.53 µM,1.7 µM,3.37 µM,1.78 µM,3.69 µM,5.07 µM,12.1 µM,0.559 µM,1.06 µM,4.85 µM,10.2 µM,2.19 µM,8.33 µM,2.23 µM,5.95 µM,1.94 µM,4.64 µM
CC1(C)CC[C@]2(C(=O)O)CC[C@]3(C)C(=CC[C@@H]4[C@@]5(C)C[C@H](O)[C@H](O)[C@@](C)(C(=O)O)[C@@H]5CC[C@]43C)[C@@H]2C1,–,> 100 µM,–,> 100 µM,–,> 100 µM,–,> 100 µM,–,> 100 µM,–,> 100 µM,–,> 100 µM,–,> 100 µM,–,> 100 µM,–,> 100 µM
O=C(/C(=C/c1ccc([N+](=O)[O-])cc1)SCc1ccc(Cl)cc1)c1ccc(F)cc1,2.12 µM,5.74 µM,2.39 µM,5.41 µM,3.47 µM,12.6 µM,9.67 µM,> 41.6 µM,12.9 µM,29.5 µM,1.96 µM,13.6 µM,2 µM,4.12 µM,16.1 µM,65.6 µM,0.81 µM,4 µM,1.63 µM,3.1 µM
Cn1nc(C(F)(F)F)cc1-c1c[nH]c(OCc2ccc(Cl)cc2)c(-c2ccc(Cl)c(C(F)(F)F)c2)c1=O,0.756 µM,4.32 µM,1.23 µM,6.56 µM,1.24 µM,3.96 µM,1.26 µM,4.27 µM,1.8 µM,> 36.6 µM,1.05 µM,3.56 µM,1.51 µM,> 47.5 µM,0.872 µM,2.72 µM,0.547 µM,2.24 µM,1.23 µM,3.56 µM
CCNC(=O)Nc1ccc(Oc2ccnc3ccc4c(ccn4C)c23)cc1,> 100 µM,> 100 µM,28.2 µM,63.9 µM,23.6 µM,85.1 µM,28.2 µM,72.8 µM,33.5 µM,99.3 µM,92.3 µM,> 100 µM,44.6 µM,> 100 µM,59.9 µM,> 100 µM,> 100 µM,> 100 µM,20.4 µM,40.7 µM
CCCc1cc(=O)n2c(C(=O)Nc3cccc(C(=O)OCC)c3)c(C(=O)Nc3ccc(F)cc3)sc2n1,45.9 µM,> 140 µM,> 140 µM,> 140 µM,23.8 µM,> 140 µM,5.83 µM,27.7 µM,5.72 µM,22.1 µM,7.27 µM,42.6 µM,87.9 µM,> 140 µM,3.54 µM,17.5 µM,6.2 µM,> 140 µM,6.65 µM,> 140 µM
N=N/C(=C\c1c(O)[nH]c2ccccc12)c1ccccc1,–,> 70.7 µM,–,63 µM,–,37.9 µM,–,99.1 µM,–,> 100 µM,–,> 100 µM,–,44.9 µM,–,63.8 µM,–,> 100 µM,–,> 70.2 µM
CN(C)CCCCC(C(=O)CBr)(c1ccccc1)c1ccccc1,2.71 µM,9.58 µM,2.44 µM,5.55 µM,2.57 µM,6.84 µM,2.38 µM,8.39 µM,1.5 µM,3.01 µM,1.27 µM,2.79 µM,1.92 µM,3.94 µM,1.87 µM,13.9 µM,1.96 µM,5.53 µM,1.44 µM,2.99 µM
[Cl][Hg][c]1ccc(Cl)s1,5.62 µM,16.2 µM,11.9 µM,26.4 µM,2.03 µM,4.46 µM,4.71 µM,28.6 µM,1.66 µM,3.09 µM,1.78 µM,3.26 µM,1.14 µM,4.66 µM,3.57 µM,17.3 µM,2.23 µM,6.58 µM,1.53 µM,3.24 µM
COc1ccc(Cn2cc3c(c2-c2ccccc2)CCc2cnoc2-3)cc1OC,3.08 µM,> 100 µM,2.19 µM,> 100 µM,1.02 µM,5.6 µM,5.75 µM,> 100 µM,2.3 µM,> 100 µM,2.24 µM,> 100 µM,0.387 µM,> 100 µM,0.669 µM,5.26 µM,3.16 µM,> 100 µM,0.819 µM,> 100 µM
COc1cc(/C(=C2/O[C@@H]([C@H]3COC(C)(C)O3)[C@H]3OC(C)(C)O[C@@H]23)c2ccc3ccccc3c2)cc(OC)c1OC,5.71 µM,> 100 µM,6.47 µM,> 100 µM,14.3 µM,79 µM,3.49 µM,60 µM,3.2 µM,7.2 µM,3.47 µM,> 100 µM,3.64 µM,16.3 µM,2.89 µM,7.44 µM,33.3 µM,> 100 µM,3.39 µM,19.8 µM
COCCNc1ccc2c3c(cccc13)C(=O)N(CCN(C)C)C2=O,9.76 µM,> 25 µM,10.1 µM,> 25 µM,7.04 µM,> 25 µM,5.01 µM,17 µM,4.2 µM,22.1 µM,4.89 µM,19.5 µM,7.66 µM,> 25 µM,15.9 µM,> 25 µM,5.27 µM,15 µM,7.06 µM,> 25 µM
CCCCCCCCCCCCSC1=C(Cl)C(=O)C(OC)=C(OC)C1=O,1.18 µM,9.09 µM,2.41 µM,10.9 µM,2.81 µM,11.9 µM,5.9 µM,28.3 µM,2.24 µM,24.6 µM,2.27 µM,11.5 µM,3.22 µM,17.5 µM,1.21 µM,10.7 µM,0.239 µM,3.7 µM,0.462 µM,5.38 µM
CCCCCCCCC/C(=N\NC(=O)c1ccncc1)c1ccc(O)c(O)c1O,1.6 µM,> 100 µM,0.199 µM,> 36.6 µM,0.294 µM,8.71 µM,0.271 µM,14.7 µM,0.196 µM,> 100 µM,0.0745 µM,> 29.3 µM,0.513 µM,32.9 µM,0.631 µM,> 100 µM,0.195 µM,31.5 µM,0.0937 µM,11.9 µM
CCN1C(=O)N(CC)C2C1NN=c1s/c(=C\c3ccco3)c(=O)n12 (configuration not stated),0.455 µM,> 100 µM,1.98 µM,> 100 µM,0.402 µM,6.48 µM,–,> 100 µM,19.7 µM,> 100 µM,0.852 µM,> 100 µM,0.361 µM,> 100 µM,0.239 µM,–,0.438 µM,> 100 µM,0.653 µM,> 100 µM
O=C1NC2C(=CC(O)C(O)C2O)c2cc3c(cc21)OCO3 (configuration not stated),–,2.08 µM,0.179 µM,1.38 µM and 1.67 µM,0.237 µM,1.41 µM and 1.85 µM,0.598 µM and 0.388 µM,4.46 µM and 2.34 µM,0.917 µM,4.11 µM,0.279 µM and 0.264 µM,2.29 µM and 2.41 µM,0.273 µM,3.58 µM and 5.95 µM,0.165 µM and 0.291 µM,0.953 µM and 4.31 µM and 4 µM,0.5 µM and 0.147 µM,0.908 µM and 1.67 µM,0.115 µM,0.67 µM and 1.53 µM
COc1cc(-c2oc3c(OC)cc(OC)c(O)c3c(=O)c2OC)cc(OC)c1OC,–,> 100 µM,–,> 100 µM,–,> 100 µM,–,> 100 µM,–,> 100 µM,–,> 100 µM,–,> 100 µM,–,5.06 µM,–,> 100 µM,–,> 100 µM
COC(=O)C1=COC(C)C2CN3CCc4c([nH]c5cc(OC)c(OC)cc45)C3CC12 (configuration not stated),–,> 100 µM,–,> 100 µM,–,> 100 µM,–,> 100 µM,–,> 100 µM,–,> 100 µM,–,> 100 µM and 94.5 µM,38.7 µM and > 100 µM,> 100 µM,–,> 100 µM,–,> 100 µM
CONC(C)=O,–,> 100 µM,–,> 100 µM,–,> 100 µM,–,> 100 µM,–,> 100 µM,–,> 100 µM,–,> 100 µM,–,> 100 µM,–,> 100 µM,–,> 100 µM
